Test results published in patent US6617312B1, “Vasoactive amine binding molecules” (Oxford Vacs Ltd., priority 1996, dated 2003).

Experiments:
[1] = molecular target: Rhipicephalus appendiculatus rMS-HBP1, His6-tagged, SEQ ID NO: 20 (Rhipicephalus appendiculatus, UniProt O77422); conditions: ^3H-histamine ~0.3 pmol (11,200 cpm), rMS-HBP1 ~100 pmol, 5 measurements
[2] = molecular target: Rhipicephalus appendiculatus FS-HBP2 (SEQ ID NO: 18) truncated version lacking the 28 C-terminal amino acids, bacterially expressed (Rhipicephalus appendiculatus, UniProt O77421)
Sequence of Rhipicephalus appendiculatus FS-HBP2 (SEQ ID NO: 18) truncated version lacking the 28 C-terminal amino acids, bacterially expressed (O77421 20-162): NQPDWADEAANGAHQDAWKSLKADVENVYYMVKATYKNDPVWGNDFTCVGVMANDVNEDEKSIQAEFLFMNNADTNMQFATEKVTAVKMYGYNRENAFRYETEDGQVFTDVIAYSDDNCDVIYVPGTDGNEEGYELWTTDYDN

[3] = molecular target: Rhipicephalus appendiculatus FS-HBP2 (SEQ ID NO: 18) truncated version lacking the 45 N-terminal amino acids, bacterially expressed (Rhipicephalus appendiculatus, UniProt O77421)
Sequence of Rhipicephalus appendiculatus FS-HBP2 (SEQ ID NO: 18) truncated version lacking the 45 N-terminal amino acids, bacterially expressed (O77421 65-190): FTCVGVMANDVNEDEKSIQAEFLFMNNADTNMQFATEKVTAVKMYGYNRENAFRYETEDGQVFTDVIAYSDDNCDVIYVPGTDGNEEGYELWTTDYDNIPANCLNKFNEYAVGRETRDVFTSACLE

[4] = molecular target: T1, Rhipicephalus appendiculatus rFS-HBP2, His6-tagged, expressed in Spodoptera frugiperda Sf21 cells (baculovirus), SEQ ID NO: 18 (Rhipicephalus appendiculatus, UniProt O77421); test: Histamine binding assay (radiolabelled histamine, PEG precipitation, Scatchard), rFS-HBP2
T1 construct: Ile-(His)6 (C); made in house; host or cells: Spodoptera frugiperda Sf21 cells (baculovirus BacPak6)
T1 sequence (O77421 20-190, added parts left off): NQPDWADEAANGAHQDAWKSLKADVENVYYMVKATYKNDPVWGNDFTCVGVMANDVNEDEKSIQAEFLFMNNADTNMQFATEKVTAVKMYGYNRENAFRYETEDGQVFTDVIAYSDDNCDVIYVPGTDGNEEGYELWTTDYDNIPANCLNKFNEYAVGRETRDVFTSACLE
Method: (§1) Construction of clones. FS-HBP1, FS-HBP2 and MS-HBP1 were expressed as histidine-tagged proteins (rFS-HBP1, rFS-HBP2 and rMS-HBP1) in Spodoptera frugiperda ovarian cells (Sf21).
(§2) This plasmid pACC129.1-FS1.HIS was also used for expression of histidine-tagged FS-HBP2 and MS-HBP1. The FS-HBP1 cDNA was deleted using SacI and BamHI thus leaving the histidine codons intact. An upstream SacI and a downstream BglII site (BglII and BamHI create compatible overhangs) were added to the FS-HBP2 and MS-HBP1 coding regions by PCR. […] The forward primer, in the case of FS-HBP2 was: 5′-[…] (SEQ ID NO:5); the reverse primer was: 5′-[…] (SEQ ID NO:6). In the case of MS-HBP1 the forward primer was: 5′-[…] (SEQ ID NO:7), and the reverse primer was: 5′-[…] (SEQ ID NO:8).
(§3) Following PCR, the derived cDNAs were inserted into the vector. A Gln-Ile-(HIS)6 sequence was thus added to the carboxyterminus of the MS-HBP1 translation product, and Ile-(His)6 to the FS-HBP2 translation product.
(§4) The baculovirus expression system was used for expression of the three tagged polypeptides. Spodoptera (Sf21) cells were transfected with the transfer vectors and baculovirus (BacPak6; Clontech). Recombinant virus was amplified as according to Kitts and Possee (1993) BioTechniques 14:810-817). The VABPs are clearly secretion products since they are mainly found in the culture medium of transfected cells as well as in saliva. […]

rVABPs = test: Competition experiment: displacement of 3H-histamine from rVABPs by histamine-like compounds; conditions: cold histamine, reference amount
[5] = molecular target: T2, Rhipicephalus appendiculatus rMS-HBP1, His6-tagged, expressed in Spodoptera frugiperda Sf21 cells (baculovirus), SEQ ID NO: 20 (Rhipicephalus appendiculatus, UniProt O77422); test: Histamine binding assay (radiolabelled histamine, PEG precipitation, Scatchard), rMS-HBP1
T2 construct: Gln-Ile-(His)6 (C); made in house; host or cells: Spodoptera frugiperda Sf21 cells (baculovirus BacPak6)
T2 sequence (O77422 19-200, added parts left off): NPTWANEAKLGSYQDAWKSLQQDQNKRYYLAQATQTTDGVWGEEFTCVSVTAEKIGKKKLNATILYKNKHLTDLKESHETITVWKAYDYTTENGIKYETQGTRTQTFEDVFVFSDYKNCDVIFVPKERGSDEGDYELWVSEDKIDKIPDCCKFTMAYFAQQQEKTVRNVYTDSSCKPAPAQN
Method: as §1, §2, §3, §4

[6] = molecular target: T3, Rhipicephalus appendiculatus rFS-HBP1, His6-tagged, expressed in Spodoptera frugiperda Sf21 cells (baculovirus), SEQ ID NO: 16 (Rhipicephalus appendiculatus, UniProt O77420); test: Histamine binding assay (radiolabelled histamine, PEG precipitation, Scatchard), rFS-HBP1
T3 construct: Gly-Ile-(His)6 (C); made in house; host or cells: Spodoptera frugiperda Sf21 cells (baculovirus BacPak6)
T3 sequence (O77420 19-190, added parts left off): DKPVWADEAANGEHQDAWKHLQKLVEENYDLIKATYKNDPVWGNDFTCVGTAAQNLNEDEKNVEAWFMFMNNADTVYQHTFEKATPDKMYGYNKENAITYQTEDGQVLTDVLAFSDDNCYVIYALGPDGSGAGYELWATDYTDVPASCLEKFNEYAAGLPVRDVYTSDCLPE
Method: as §1
In order to append the His6 tag, the coding region of FS-HBP1 was first amplified using the polymerase chain reaction (PCR). […] The forward primer used was: 5′-[…] (SEQ ID NO:3); the reverse primer was: 5′-[…] (SEQ ID NO:4). The primers were designed so that a SacI site was added upstream of the start codon, whilst the stop codon was replaced by a BamHI site, followed by 6 histidine codons and an SpeI site comprising a TAG stop codon. The PCR product was cut with SacI and SpeI. The latter enzyme creates a compatible overhang with XbaI, enabling the fragment to be ligated between the SacI and XbaI sites of the pAcC129.1 transfer vector (Livingstone and Jones (1989) Nucleic Acids Res. 17:2366), generating the plasmid pACC129.1-FS1.HIS. This plasmid therefore contained the sequence Gly-Ile-(His)6 appended to the carboxy terminus of the FS-HBP1 translation product.
The baculovirus expression system was used for expression of the three tagged polypeptides. Spodoptera (Sf21) cells were transfected with the transfer vectors and baculovirus (BacPak6; Clontech). Recombinant virus was amplified as according to Kitts and Possee (1993) BioTechniques 14:810-817). […]

Sequence of Rhipicephalus appendiculatus rMS-HBP1, His6-tagged, SEQ ID NO: 20 (O77422 19-200): as the sequence (O77422 19-200, added parts left off) above

SMILES	bound radioligand, without added histamine [1]	binding to histamine [2]	bound radioligand, supplemented with histamine ([1]; plus histamine 0.5 pmol)	binding to histamine [3]	Kd [4] [nM]	displacement of ^3H-histamine from the binding sites (rVABPs)	Kd [5] [nM]	Kd [6] [nM]
NCCc1c[nH]cn1 [^3H-histamine]	6,840±150 cpm	–	–	–	–	–	–	–
NCCc1c[nH]cn1 [histamine]	–	do not bind to histamine at all	7,560±110 cpm	do not bind to histamine at all	1.7	more than 95%	1.2	78
